Laboratory results reported in patent publication US9260760B2, “Method for determining complete response to anticancer therapy” (Board of Regents, The University of Texas System, priority 2012, dated 2016).
Values joined by “and” are separate entries in the source; they are usually repeats but may differ in a detail not shown here. Equal values may be shown once.

Assay: Study 1: treatment-related toxicity of XCEL (CTC version 2.0)
Format: in vivo, human
From the text: The radiation was delivered to the target area using 18 MV photons with 3-D conformal planning technique. The dose of radiation was either 35-40 Gy (n=18) or >45 Gy (n=15) with dose radiation missing in one patient. […] Celecoxib was continued with capecitabine to prevent HFS and to improve survival.
All patients were subjected to routine clinical examinations, laboratory analyses, and computed tomography. Patients were seen weekly during radiotherapy if treated on site or every 6-9 weeks with physical examinations, laboratory tests, and computed tomography. Treatment-related toxicity was graded using the National Institutes of Health's Common Toxicities Criteria (CTC) version 2.0. Tumor responses were evaluated using RECIST criteria. […] Overall response rate was defined as the sum of the complete and partial response rates and the tumor control rate was defined as the sum of overall response rates with stable disease rates. The date of death was ascertained through the cancer registry or through a search of patients' social security numbers in the Social Security Death Index (ssdi.genealogy.rootsweb.com).

SMILES: Cc1ccc(-c2cc(C(F)(F)F)nn2-c2ccc(S(N)(=O)=O)cc2)cc1 [XCEL]
- Mild serum creatinine elevations (3 patients after 14 to 32 months of XCEL, reversible upon discontinuation of celecoxib): 1.6 to 2.0 mg/dL
- grade ⅔ HFS (expanded study with longer follow up): 17%
- gastrointestinal bleeding, other cardiovascular events, deaths (in vivo): No gastrointestinal bleeding, other cardiovascular events, or deaths were noted
- median time to HFS peak (n=12): 6.0 months and 6 months
- median time to HFS onset (n=17): 3.8 months
- Incidence of grade 1 HFS (n=65): 14%
- Incidence of grade 2 HFS (n=65): 15%
- Incidence of grade 3 HFS (n=65): 2%
- grade ¾ lymphopenia (n=65): 24%
- lymphopenia of all grades (n=65): 56%
